“Also recorded” adds a separate entry of the source.
Legend:
[1] = Hydroxyl radical production, hydroxylation of benzoate by H2O2; conditions: sodium benzoate + H2O2, cell-free
Experimental: The effects of the compounds on free radical production were evaluated in a cell-free system. In vitro hydroxyl radical production was determined by the hydroxylation of benzoate by H2O2 as described in Giardino et al., Diabetes 47:1114-1120, 1998. In brief, 30 mmol/l sodium benzoate in PBS buffer, pH 7.4, was incubated with 10 mmol/l H2O2 overnight at 37° C. alone and in the presence of various amounts of inhibitor compounds. After incubation, aliquots from each sample were analyzed for fluorescence (305 nm excitation; 408 nm emission). Results were expressed as the amount of salicylate equivalent (μM) produced by the hydroxylation of benzoate. Mannitol, a known hydroxyl radical scavenger, was included in the experiment as control.

[2] = Superoxide production, methylglyoxal with N-α-acetyl-lysine, WST-1 assay
Experimental: The superoxide radical scavenging activity of the compounds was evaluated using the WST-1 method described in Ukeda et al., Anal. Sci. 18:1151-1154, 2002. Briefly, methylglyoxal, was incubated with or without N-α-acetyl-lysine in 0.05 M chelex-treated sodium phosphate buffer, pH 7.4, in the presence of various concentrations of the inhibitor compounds. The production of superoxide was monitored spectrophotometrically at 438 nm, and compared with superoxide dismutase and Tiron, two known superoxide radical scavengers.

[3] = tested on: STZ-Diabetic Rats; assay: Total plasma/serum triglycerides and cholesterol in STZ-diabetic rats (Example 2); type: in vivo, rat; conditions: 32 weeks, towards levels of non-diabetic animals
Experimental: Male Sprague-Dawley rats (about 175 to 200 g) were adapted for one week prior to treatment, then rendered diabetic by intra-peritoneal injection of STZ (65 mg/kg in citrate buffer, pH 4.5) after an overnight fast. Control (non-diabetic) animals were injected with the buffer only. Diabetes was confirmed by measuring the plasma glucose concentrations 7 days after Streptozotocin (STZ)-injection. Only animals with a plasma glucose concentration greater than 20 mmol were classified as diabetic and used in the study. These diabetic rats were divided randomly into an untreated diabetic control group and a diabetic treatment group. The treatment group received an LR compound at 50 mg/l in their drinking water throughout the duration of the study (32 weeks for LR-90; 30 weeks for LR-9 and LR-74). All animals were housed individually and were given free access to food and water.
Blood (from the tail vein) and urine samples were collected from rats for glycemic control analysis and albuminuria measurements. Glycemia was monitored every 8 weeks by measuring plasma glucose and glycated hemoglobin. Plasma or serum also was tested for total cholesterol and total triglycerides. Progression of renal dysfunction was assessed by measuring urinary albumin to creatinine ratio (UA/Cr) and serum or plasma creatinine. […]

[4] = tested on: STZ-Diabetic Rats; assay: AGE immunohistochemistry of kidney (6D12 anti-CML antibody); type: in vivo, rat
Experimental: For immunohistochemical AGE staining, formalin-fixed […] embedded sections (2 μm thick) were mounted on slides coated with 2-aminopropyltriethoxy silane, baked for 3 hours at 58° C., deparaffinized, rinsed with 3% hydrogen peroxide, and incubated with Proteinase K (0.5 mg/mL) for 5 minutes at room temperature. These sections were washed with rinse buffer and blocked with Protein Blocking Agent for 5 minutes and subsequently incubated with 6D12 anti-AGE mouse monoclonal antibody specific for CML for 30 minutes at room temperature. After washing with rinse buffer, the sections were incubated with EnVision™ with labeled polymer peroxidase-conjugated mouse anti-IgG for 30 minutes at room temperature, followed by detection with 3,3′-diaminobenzidine tetrahydrochloride solution as chromogen and 50% hematoxylin as counterstain.

[5] = tested on: STZ-Diabetic Rats; assay: Kidney anatomy and histopathology (PAS, trichrome, Picrosirius red, TEM); type: in vivo, rat
Description: To quantitate glomerulosclerosis (defined as glomerular basement membrane thickening, mesangial hypertrophy, and capillary occlusion), kidney sections were stained with periodic acid Schiff (PAS) reagent. A total of 150 glomeruli were randomly chosen from each rat kidney (four different kidneys per treatment) and carefully graded for sclerosis, by a blinded evaluator. The degree of sclerosis in each glomerulus was graded subjectively on a scale of 1 to 4 as follows: grade 1, sclerotic area less than 25%; grade 2, sclerotic area 25-50%; grade 3, sclerotic area 51-75%; and grade 4, sclerotic area more than 75%. The glomerulosclerotic index (GSI) then was calculated using the following formula: GSI=Σ^4i=1 Fi (I), where Fi is the percentage of glomeruli in the rat with a given score of (I). See Wilkinson-Berka et al., Diabetes 51:3283-3289, 2002. To quantitate glomerulosclerosis, kidney sections were stained with periodic acid Schiff (PAS) reagent.
Cellular infiltrates were identified in the renal interstitium from 5 μm-thick kidney sections stained with PAS. Infiltrates in each kidney sample were graded as follows: + (patchy and light), ++ (patchy and dense), +++ (diffuse and dense with aggregates of neutrophils in tubules or in interstitium) also in a blinded manner. For collagen deposition staining in the kidneys, paraffin sections were randomly chosen from kidneys from each treatment group and stained with Masson's trichrome. Briefly, the sections were deparaffined, hydrated with water, and immersed in Mordant in Boiuin's solution for 10 minutes. The sections then were rinsed in water and stained with Mayer's hematoxylin for 6 minutes. After rinsing in water, Biebrich scarlet-acid fuchsin was added for 2 minutes, rinsed, phosphomolybdic-phosphotungstic solution added for 15 minutes, followed by aniline blue solution for 10 minutes. After rinsing the sections with water, glacial acetic acid was added for 20 seconds and then the slides were dehydrated with 95% ethanol. With this method, blue and red colors indicate collagen and cytoplasm staining, respectively. […]

Compound | inhibition of hydroxyl radical formation [1] | effect on superoxide production [2] | reduction of serum cholesterol [3] | reduction of serum triglycerides [3] | AGE staining in kidney glomeruli and cortical tubules [4] | basement membrane thickening (TEM photographs) [5] | cellular infiltrates in the renal interstitium [5] | collagen deposited inside the glomeruli and the tubulointerstitium (Picrosirius red) ([5]; 32 weeks)
CC(C)(Oc1ccc(NC(=O)c2ccc3ccccc3c2)cc1)C(=O)O [LR-9, 4-(2-napthylcarboxamido) phenoxyisobutyric acid] | strong inhibitors | – | – | – | – | – | – | –
CC(Oc1cccc2cccnc12)C(=O)O (stereo not drawn) [LR-74, 2-(8-quinolinoxy) propionic acid] | strong inhibitors | little or no effect | – | – | – | – | – | –
methylene bis(4,4′-(2-chlorophenylureidophenoxyisobutyric acid) [LR-90] | – | – | 50% | 50% | visibly reduced | reduced basement membrane thickening | prevented cell infiltration; also recorded: no neutrophils were detected | reduced

Reference: patent publication US7652037B2, “Methods of lowering lipid levels in a mammal” (City Of Hope, priority 2003, dated 2010)
